Experimental data as given in US9782491B2, “Peptide conjugates for treating pain” (priority 2012, dated 2017).
Where “and” joins values, the source holds several entries; their conditions need not be identical. Equal values may be shown once. Read-outs that look alike come from different tables or passages of the source. Ends that are not written are not given here.

Assays:
[1] = tested on: adult Nf1+/- mice DRG neurons; assay: K+-stimulated release of iCGRP from Nf1+/- sensory neurons (RIA); assay type: cell-based, mouse
[2] = molecular target: interaction between CaV2.2 and CRMP2 (Rattus norvegicus, UniProt P47942); assay: Immunoprecipitation with CaV2.2 antibody from rat dorsal root ganglia lysate, CRMP2 immunoblot; assay type: biochemical; conditions: 10 μM peptide added for 30 min; rat DRG
adult rat DRG neurons = assay: Fura-2 calcium imaging of K+-stimulated Ca2+ influx; assay type: cell-based
[3] = cell permeability; Wender et al.; cited from earlier work
rats with TNI = conditions: 10 mg/kg i.p.; evaluated at 1 h and 4 h
Experimental: Antinociceptive efficacy following acute and continuous systemic infusion. Test animals with tibial nerve injury (TNI)-induced neuropathic pain behavior (over 6 months) were administered to a single intraperitoneal injection or continual constant-rate infusion of polyarginine-conjugated CBD3A6K (ST2-106). Female Sprague-Dawley rats with TNI were administered a single injection of saline or 20 mg/kg of ST2-106.
Female Sprague-Dawley rats with TNI were infused with saline or ST2-106 over a 24 to 72 hour period using subcutaneously implanted Alzet® osmotic minipumps. […] Rats were used at 28 days after tibial nerve injury.
Paw-withdrawal thresholds (PWT in millinewtons, mN) were measured in naïve rats and rats subjected to spared nerve injury (i.e. tibial nerve ligation, TNI).
Paw-withdrawal thresholds (PWT in millinewtons, mN) were also measured in naïve rats and rats subjected to TNI when treated with compounds described herein or vehicle for extended periods.

naïve rodents = conditions: in vivo, ip
adult mouse DRG neurons = assay: K+-stimulated release of iCGRP from isolated sensory neurons (RIA); assay type: cell-based; conditions: 10 μM peptide; for basal or resting release of iCGRP: 3.5 mM KCl
Experimental: EXAMPLE. Primary dorsal root ganglion (DRG) neuronal cultures. Isolation of sensory neurons from 1 to 2 month old wildtype C57BL/6J and Nf1^+/− C57BL/6J littermates (34) was performed exactly as described previously (11,35,36) while DRGs from adult rats were prepared as per Brittain and colleagues (11). All animals were housed, bred, and had free access to food and water in the Indiana University Laboratory Animal Research Center and used in procedures approved by the Animal Use and Care Committee of the Indiana University School of Medicine. All animals were genotyped prior to use in experiments.
EXAMPLE. Stimulated-release of iCGRP. Measurement of stimulus-evoked release and content of immunoreactive CGRP (iCGRP) from isolated sensory neurons was accomplished as previously published (11,33,35). After 5-7 days in culture, media was removed and the basal or resting release of iCGRP was measured from cells incubated for 10 minutes in HEPES buffer consisting of (in mM): 25 HEPES, 135 NaCl, 3.5 KCl, 2.5 CaCl2, 1 MgCl2, 3.3 dextrose, and 0.1% (w/v) bovine serum albumin, pH 7.4, and maintained at 37° C. […] The amount of iCGRP released in each incubation was measured by a radioimmunoas say (RIA). The minimum amount of iCGRP detected by the RIA is 5 fmol with a 95% confidence interval (37). After the release protocol, the remaining peptide content in each well was determined by exposing the cells to 2 N acetic acid for 10 minutes. Aliquots of acid solution were diluted in HEPES and iCGRP levels were determined by RIA. The release of iCGRP during the 10 min incubation period is expressed as percent of the total content. […]
EXAMPLE. […] The KCl-stimulated release of CGRP was measured from sensory neurons exposed to TAT-control, TAT-L1 or TAT-Ct-dis peptides, at 10 μM (a concentration at which Ca^2+ influx was largely unaffected by both peptides), included in the 10 minutes prior to and throughout the high K^+ exposures (total peptide exposure of 30 min). […]

ddC-injected rats = assay: ddC model of peripheral neuropathy, von Frey paw withdrawal threshold; assay type: in vivo, rat
[4] = tested on: R-type (CaV2.3) Ca2+ currents; assay: R-type Ca2+ current recording in sensory neurons; assay type: cell-based
[5] = tested on: lumbar 4-5 DRG neurons from d4T-treated rats; assay: Current clamp recording of action potential firing; assay type: cell-based, rat; conditions: 10 μM
Experimental: EXAMPLE. […] Current clamp recordings were performed on small-to-medium (>30 μm->40 μm) diameter lumbar 4-5 DRG neurons from d4T-treated rats. Firing of 4-6 action potentials (APs) was elicited by a 1 second depolarizing current injection (ranging from 0.1 to 0.4 nA depending on the cell) every 30 seconds.

d4T-treated rats = assay: d4T-induced mechanical hypersensitivity, paw withdrawal threshold; conditions: administered at 10 mg

ARSRLAELRGVPRGL (listed as Homo sapiens) [CBD3, short peptide derived from CRMP2]
less iCGRP release compared to TAT-control ([1]; Nf1+/- neurons, 50 mM KCl, 10 μM peptide): ~78%

NSSFPSIHCSSWSEE [Ct-dis]
amount of CRMP2 captured with CaV2.2 antibody [2]: reduced the amount of CRMP2 that could be captured | peptide-mediated inhibition of [Ca2+]c influx, Ct-dis versus L1 (adult rat DRG neurons; 30 μM): much more pronounced | K+-stimulated [Ca2+]c influx (adult rat DRG neurons; 20 min incubation, 3 μM and 30 μM (FIG. 1), 46.5 mM KCl): concentration-dependent decrease

R9: oligoarginine (SEQ ID NO: 1) (RRRRRRRRR)
greater penetration than TAT [3]: 100 fold

RRRRRRRRRARSRLAELRGVPRGL [ST2-104]
nerve-injury induced nociception (PWT) (rats with TNI): reverses nerve-injury induced nociception

RRRRRRRRRARSRLKELRGVPRGL [ST2-106]
PWT in naïve animals (naïve rodents): unaffected

YGRKKRRQRRR-NSSFPSIHCSSSWSEE [TAT-Ct-dis]
less iCGRP release compared to TAT-control (adult mouse DRG neurons; 50 mM KCl): ~70% | less iCGRP release compared to TAT-control [1]: ~70% | peptide-induced reversal of hypersensitivity (ddC-injected rats; 4 mg/kg i.p., two hours after injection): diminished to pre-peptide levels | reversal of tactile hypersensitivity (PWT) (ddC-injected rats; ~4 mg/kg i.p., 1 h after injection, seven days after ddC): Almost complete reversal of tactile hypersensitivity

YGRKKRRQRRR-WEAKEMLYFEALVIE (YGRKKRRQRRRWEAKEMLYFEALVIE) [TAT-control, reference compound]
basal or resting release of iCGRP (adult mouse DRG neurons): 1.58±0.17 % total peptide content/10 min and 0.92±0.09 % total peptide content/10 min | increase in iCGRP release over basal [1]: 8 to 10 fold

YGRKKRRQRRR-YLEWIFKAEEVMLAE (YGRKKRRQRRRYLEWIFKAEEVMLAE) [TAT-L1]
basal or resting release of iCGRP (adult mouse DRG neurons): 1.04±0.09 % total peptide content/10 min

YGRKKRRQRRRARSRLAELLGVPRGL [ST1-106]
R-type calcium current density [4]: showed a significant decrease over control | number of elicited action potentials [5]: reduces the number of elicited action potentials

YGRKKRRQRRRARSRLAELRGVPRGL [ST1-104]
effect on healthy animals (pre-d4T) (d4T-treated rats): Neither TAT-CBD3 nor TAT-CBD3A6K administered at 10 mg showed an effect

YGRKKRRQRRRARSRLKELRGVPRGL [ST1-105]
effect on healthy animals (pre-d4T) (d4T-treated rats): Neither TAT-CBD3 nor TAT-CBD3A6K administered at 10 mg showed an effect
